Legend:
Lympho-sarcoma = test: Antitumorous effectiveness, lympho-sarcoma tumour mass; conditions: intraperitoneally; proposed drug 30mg./kg. and prototype 300 mg./kg. on days 1, 2, 3 after transplantation; Adriamycin 600 μg./kg. on days 1 and 3; control 1124
Erlich’s carcinoma = test: Antitumorous effectiveness, Erlich's carcinoma tumour mass; conditions: intraperitoneally; proposed drug 300 mg./kg. and prototype 300 mg./kg. on days 1 and 3 after transplantation; Adriamycin 600 μg on day 1; control 540
[1] = test system: Herpes simplex - 1 (MS strain); test: Herpetic encephalitis, mortality; format: in vivo; conditions: 100 LD 50; 7 days after infection; intraperitoneally; AraA 20 mg./kg. every day; prototype 400 mg./kg. and proposed drug 25 mg./kg. 4 h before and 24 h after infection; control 100%
Semlika forest virus = Semlika forest virus infection, mortality; format: in vivo; conditions: 30 LD 50; 12 days after infection; intraperitoneally; Remantadin 20 mg./kg 4 h and 24 h after infection; proposed drug 10 mg./kg 4 h before and 24 h after infection; control 80%
[2] = in vivo
leukosis L 1210 = test: Treatment of developing leukosis L 1210; conditions: orally on days 1, 2, 3 after transplantation; proposed drug 30 mg./kg., prototype 400 mg./kg.; control 96
[3] = test system: Venezuelan equine encephalitis virus (SPF strain); format: in vivo; conditions: intraperitoneally, Poly (G) 0.1 g./kg. and prototype 200 mg./kg. at infection and 24 h after, proposed drug 20 mg./kg 4 h before and 24 h after infection
[4] = test system: Herpes simplex-2 (Ela 5699 strain); test: Rabbit keratitis, severity of clinical symptoms; conditions: daily instillation: megosin 3% ointment, prototype 5% ointment, proposed drug 2.1% suspension; for Index of severity of clinical symptoms on day 5 following infection: control 14; for Index of severity of clinical symptoms on day 7 following infection: control 17; for Index of severity of clinical symptoms on day 9 following infection: control 13; for Index of severity of clinical symptoms on day 14 following infection: control 2

Molecule | Indices of efficacy (Mean tumour mass (mg.)) (Lympho-sarcoma) [mg] | Indices of efficacy (Mean tumour mass (mg.)) (Erlich’s carcinoma) [mg] | Indices of efficacy, % mortality [1] | Indices of efficacy, % mortality (Semlika forest virus) | toxicity (therapeutic index) [2] | Percentage of blastular cells in peripheral blood (leukosis L 1210) [%] | Degree of suppression of viral reproduction in the brain 48 hours after infection, expressed as a percentage relative to the control [3] [%] | Index of severity of clinical symptoms on day 5 following infection [4] | Index of severity of clinical symptoms on day 7 following infection [4] | Index of severity of clinical symptoms on day 9 following infection [4] | Index of severity of clinical symptoms on day 14 following infection [4]
COc1cccc2c1C(=O)c1c(O)c3c(c(O)c1C2=O)C[C@@](O)(C(=O)CO)C[C@@H]3O[C@H]1C[C@H](N)[C@H](O)[C@H](C)O1 [Adriamycin] | 622 | 100 |  |  |  |  |  |  |  |  | 
Nc1ncnc2c1ncn2[C@@H]1O[C@H](CO)[C@@H](O)[C@@H]1O [AraA, adenin - arabinosid] |  |  | 42%, 7 days after infection |  |  |  |  |  |  |  | 
CC(N)C12CC3CC(CC(C3)C1)C2 (stereo not drawn) [Remantadin] |  |  |  | 20%, 12 days after infection |  |  |  |  |  |  | 
CN(C)CCOc1ccc2cc3cc([N+](=O)[O-])c(OCCN(C)C)c(Cl)c3nc2c1Cl [The prototype, 3.6 - bis(2-dimethylaminetoxy)-4.5-dichlorine-2-nitroacridine] | 820 | 200 | 22% |  | 10-15 | 40 | 74 | 10 | 14 | 8 | 1
ether of 10 - methylencarboxylat-9-acridone [The proposed drug] | 534 | 74 | 5% | 0% |  | 18 | 98 | 5 | 3 | 1 | 0
